pKi: −log10 of the molar value.
Experiments:
[1] = biological target: T1, iridoid synthase (CrISY) G150A (Catharanthus roseus, UniProt K7WDL7, D87N/G150A); experiment: co-crystal structure; type: binding
T1 sequence (K7WDL7 23-388 D87N/G150A): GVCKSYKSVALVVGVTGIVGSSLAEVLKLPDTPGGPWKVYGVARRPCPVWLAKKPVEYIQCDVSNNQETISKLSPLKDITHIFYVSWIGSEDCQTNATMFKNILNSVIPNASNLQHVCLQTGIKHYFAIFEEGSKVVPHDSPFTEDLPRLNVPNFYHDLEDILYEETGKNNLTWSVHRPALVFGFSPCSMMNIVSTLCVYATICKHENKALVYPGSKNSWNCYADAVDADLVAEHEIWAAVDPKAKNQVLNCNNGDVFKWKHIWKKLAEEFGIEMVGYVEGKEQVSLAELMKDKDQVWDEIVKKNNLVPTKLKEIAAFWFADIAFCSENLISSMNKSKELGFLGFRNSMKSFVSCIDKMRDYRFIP

iridoid synthase (CrISY) [2] = biological target: T2, iridoid synthase (CrISY) (Catharanthus roseus, UniProt K7WDL7, D87N); experiment: co-crystal structure at […] Å; type: binding
iridoid synthase (CrISY) [3] = biological target: T2, iridoid synthase (CrISY); experiment: co-crystal structure at […] Å; type: biochemical

T2 sequence (K7WDL7 23-388 D87N): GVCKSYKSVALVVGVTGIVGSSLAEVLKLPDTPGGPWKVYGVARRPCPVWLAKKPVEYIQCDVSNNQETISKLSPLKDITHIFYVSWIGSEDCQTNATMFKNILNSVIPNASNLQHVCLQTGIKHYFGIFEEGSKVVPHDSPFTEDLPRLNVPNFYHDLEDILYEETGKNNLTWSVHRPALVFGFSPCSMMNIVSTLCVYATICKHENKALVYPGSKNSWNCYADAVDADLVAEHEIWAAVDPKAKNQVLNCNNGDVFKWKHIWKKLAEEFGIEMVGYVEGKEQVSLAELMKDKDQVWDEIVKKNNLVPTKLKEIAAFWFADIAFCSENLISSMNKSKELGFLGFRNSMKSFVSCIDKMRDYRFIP

Row | SMILES | co-crystal structure [1] | co-crystal structure at 1.40 Å (iridoid synthase (CrISY) [2]) | pKi (iridoid synthase (CrISY) [3])
1 | NC(=O)c1ccc[n+]([C@@H]2O[C@H](COP(=O)(O)OP(=O)(O)OC[C@H]3O[C@@H](n4cnc5c(N)ncnc54)[C@H](OP(=O)(O)O)[C@@H]3O)[C@@H](O)[C@H]2O)c1 [NADP+] | The structure of CrISY^G150A was solved with NADP^+ bound (PDB code 5DCY) | CrISY’s structure was solved in its apo form and with NADP^+ bound (PDB codes 5DCW and 5DCU, respectively) | –
2 | CC(C)=CCC/C(C)=C/C(=O)O [GEA, geranic acid] | – | – | ~5.40
